Test system: N-kinase
Experiment: in-gel kinase method (histone HF-1 substrate, [32P]-ATP)
Format: biochemical
Conditions: in-gel kinase assay, [32P]-ATP plus Mn2+, with or without 6-TG present; bovine brain fractions
Procedure: During the purification process, kinase activity was monitored using an in-gel kinase method. In this method, a histone HF-1 substrate protein is polymerized into a 10% polyacrylamide gel before the samples to be analyzed are electrophoresed in the gel. Following completion of the electrophoresis, proteins are partially renatured with guanidium isothiocyanate and incubated in the presence [^32P]-ATP plus Mn^2+, with or without 6-TG present. (Activation by Mn^2+, but not by Mg^2+ or Ca^2+, is a distinctive property of N-kinase). The purification of the kinase was monitored by looking for a 6-TG-inhibitable radioactive band corresponding to the site where the kinase phosphorylates the HF-1 substrate in the gel.

inhibition of N-kinase HF-1-phosphorylating activity: inhibitable
SMILES: Nc1nc2nc[nH]c2c(=S)[nH]1 [6-TG, 6-thioguanine]

Source: patent US7172871B1, “Methods and compositions for modulating axonal outgrowth of central nervous system neurons” (Children's Medical Center Corporation, priority 2000, dated 2007)
